According to US20250353820A1, “ANTIVIRAL PYRAZOLOPYRIDINONE COMPOUNDS” (Novartis AG, priority 2019, published 2025):

target: human HSV DNA polymerase UL30 (Human herpesvirus 1 (strain 17) (HHV-1) (Human herpes simplex virus 1), UniProt P04293); test: biochemical; settings: 625 pM HSV polymerase, 20 minutes at room temperature; read-out: HSV-polymerase Biochemical IC50

**Q.** Which IC50 does the source give for `Cn1nc(C(=O)NCc2ccc(C#N)cc2)c2c1C(=O)N(CC1(S(=O)(=O)N3CCC(C)(O)C3)CC1)CC2` (single isomer, unassigned) [Example 130, (R)- or (S)-N-(4-Cyanobenzyl)-6-((1-((3-hydroxy-3-methylpyrrolidin-1-yl)sulfonyl)cyclopropyl)methyl)-1-methyl-7-oxo-4,5,6,7-tetrahydro-1H-pyrazolo[3,4-c]pyridine-3-carboxamide] here?
**A.** The IC50 was 122 nM.

**Q.** Which IC50 does the source give for `Cn1nc(C(=O)NCc2ccc(C#N)cc2)c2c1C(=O)N(CC1(S(=O)(=O)C3CC3)CC1)CC2` [Example 3, N-(4-cyanobenzyl)-6-((1-(cyclopropylsulfonyl)cyclopropyl)methyl)-1-methyl-7-oxo-4,5,6,7-tetrahydro-1H-pyrazolo[3,4-c]pyridine-3-carboxamide] here?
**A.** The IC50 was 55 nM.

**Q.** Which IC50 does the source give for `Cn1nc(C(=O)NCc2ccc(Cl)cc2)c2c1C(=O)N(CC1(S(=O)(=O)C3CC3)CC1)CC2` [Example 4, N-(4-Chlorobenzyl)-6-((1-(cyclopropylsulfonyl)cyclopropyl)methyl)-1-methyl-7-oxo-4,5,6,7-tetrahydro-1H-pyrazolo[3,4-c]pyridine-3-carboxamide] here?
**A.** The IC50 was 48 nM.

**Q.** `Cn1nc(C(=O)NCc2ccc(F)cc2)c2c1C(=O)N(CC1(S(=O)(=O)C3CC3)CC1)CC2` [Example 5, 6-((1-(Cyclopropylsulfonyl)cyclopropyl)methyl)-N-(4-fluorobenzyl)-1-methyl-7-oxo-4,5,6,7-tetrahydro-1H-pyrazolo[3,4-c]pyridine-3-carboxamide] was tested. Which IC50 did it give?
**A.** The IC50 was 416 nM.

**Q.** How did the IC50 turn out when `CN(Cc1ccc(C#N)cc1)C(=O)c1nn(C)c2c1CCN(CC1(S(=O)(=O)C3CC3)CC1)C2=O` [Example 6, N-(4-Cyanobenzyl)-6-((1-(cyclopropylsulfonyl)cyclopropyl)methyl)-N,1-dimethyl-7-oxo-4,5,6,7-tetrahydro-1H-pyrazolo[3,4-c]pyridine-3-carboxamide] was run?
**A.** Its IC50 is 959 nM.

**Q.** With `Cc1ccc(CNC(=O)c2nn(C)c3c2CCN(CC2(S(=O)(=O)C4CC4)CC2)C3=O)cc1` [Example 8, 6-((1-(Cyclopropylsulfonyl)cyclopropyl)methyl)-1-methyl-N-(4-methylbenzyl)-7-oxo-4,5,6,7-tetrahydro-1H-pyrazolo[3,4-c]pyridine-3-carboxamide] as the compound, how does the IC50 read?
**A.** The IC50 was 1630 nM.

**Q.** For `Cn1nc(C(=O)NCc2ccc(C#N)c(F)c2)c2c1C(=O)N(CC1(S(=O)(=O)C3CC3)CC1)CC2` [Example 9, N-(4-Cyano-3-fluorobenzyl)-6-((1-(cyclopropylsulfonyl)cyclopropyl)methyl)-1-methyl-7-oxo-4,5,6,7-tetrahydro-1H-pyrazolo[3,4-c]pyridine-3-carboxamide], which IC50 is on record?
**A.** Its IC50 is 45 nM.

**Q.** How did the IC50 turn out when `Cn1nc(C(=O)NCc2ccc(Cl)s2)c2c1C(=O)N(CC1(S(=O)(=O)C3CC3)CC1)CC2` [Example 10, N-((5-Chlorothiophen-2-yl)methyl)-6-((1-(cyclopropylsulfonyl)cyclopropyl)methyl)-1-methyl-7-oxo-4,5,6,7-tetrahydro-1H-pyrazolo[3,4-c]pyridine-3-carboxamide] was run?
**A.** Its IC50 is 641 nM.

**Q.** Which IC50 does the source give for `Cc1cc(CNC(=O)c2nn(C)c3c2CCN(CC2(S(=O)(=O)C4CC4)CC2)C3=O)ccc1C#N` [Example 11, N-(4-Cyano-3-methylbenzyl)-6-((1-(cyclopropylsulfonyl)cyclopropyl)methyl)-1-methyl-7-oxo-4,5,6,7-tetrahydro-1H-pyrazolo[3,4-c]pyridine-3-carboxamide] here?
**A.** Its IC50 is 2230 nM.

**Q.** For `Cc1cc(C#N)ccc1CNC(=O)c1nn(C)c2c1CCN(CC1(S(=O)(=O)C3CC3)CC1)C2=O` [Example 12, N-(4-Cyano-2-methylbenzyl)-6-((1-(cyclopropylsulfonyl)cyclopropyl)methyl)-1-methyl-7-oxo-4,5,6,7-tetrahydro-1H-pyrazolo[3,4-c]pyridine-3-carboxamide], which IC50 is on record?
**A.** The IC50 was 346 nM.

**Q.** With `Cn1nc(C(=O)NCc2ccc(C#N)cc2F)c2c1C(=O)N(CC1(S(=O)(=O)C3CC3)CC1)CC2` [Example 13, N-(4-Cyano-2-fluorobenzyl)-6-((1-(cyclopropylsulfonyl)cyclopropyl)methyl)-1-methyl-7-oxo-4,5,6,7-tetrahydro-1H-pyrazolo[3,4-c]pyridine-3-carboxamide] as the compound, how does the IC50 read?
**A.** Its IC50 is 311 nM.

**Q.** Which IC50 does the source give for `Cn1nc(C(=O)NCc2ccc(C#N)cn2)c2c1C(=O)N(CC1(S(=O)(=O)C3CC3)CC1)CC2` [Example 14, N-((5-Cyanopyridin-2-yl)methyl)-6-((1-(cyclopropylsulfonyl)cyclopropyl)methyl)-1-methyl-7-oxo-4,5,6,7-tetrahydro-1H-pyrazolo[3,4-c]pyridine-3-carboxamide] here?
**A.** Its IC50 is 1610 nM.

**Q.** Which IC50 does the source give for `COc1cc(CNC(=O)c2nn(C)c3c2CCN(CC2(S(=O)(=O)C4CC4)CC2)C3=O)ccc1C#N` [Example 15, N-(4-Cyano-3-methoxybenzyl)-6-((1-(cyclopropylsulfonyl)cyclopropyl)methyl)-1-methyl-7-oxo-4,5,6,7-tetrahydro-1H-pyrazolo[3,4-c]pyridine-3-carboxamide] here?
**A.** The IC50 was 385 nM.

**Q.** For `C[C@H](NC(=O)c1nn(C)c2c1CCN(CC1(S(=O)(=O)C3CC3)CC1)C2=O)c1ccc(C#N)cc1` [Example 16, (S)-N-(1-(4-Cyanophenyl)ethyl)-6-((1-(cyclopropylsulfonyl)cyclopropyl)methyl)-1-methyl-7-oxo-4,5,6,7-tetrahydro-1H-pyrazolo[3,4-c]pyridine-3-carboxamide], which IC50 is on record?
**A.** Its IC50 is 239 nM.

**Q.** Which IC50 does the source give for `C[C@@H](NC(=O)c1nn(C)c2c1CCN(CC1(S(=O)(=O)C3CC3)CC1)C2=O)c1ccc(C#N)cc1` [Example 17, (R)-N-(1-(4-Cyanophenyl)ethyl)-6-((1-(cyclopropylsulfonyl)cyclopropyl)methyl)-1-methyl-7-oxo-4,5,6,7-tetrahydro-1H-pyrazolo[3,4-c]pyridine-3-carboxamide] here?
**A.** The IC50 was over 25000 nM.

**Q.** Which IC50 does the source give for `Cn1nc(C(=O)N[C@@H](CO)c2ccc(Cl)cc2)c2c1C(=O)N(CC1(S(=O)(=O)C3CC3)CC1)CC2` [Example 18, (R)-N-(1-(4-Chlorophenyl)-2-hydroxyethyl)-6-((1-(cyclopropylsulfonyl)cyclopropyl)methyl)-1-methyl-7-oxo-4,5,6,7-tetrahydro-1H-pyrazolo[3,4-c]pyridine-3-carboxamide] here?
**A.** Its IC50 is 1060 nM.

**Q.** How did the IC50 turn out when `Cn1nc(C(=O)N[C@H](CO)c2ccc(Cl)cc2)c2c1C(=O)N(CC1(S(=O)(=O)C3CC3)CC1)CC2` [Example 19, (S)-N-(1-(4-Chlorophenyl)-2-hydroxyethyl)-6-((1-(cyclopropylsulfonyl)cyclopropyl)methyl)-1-methyl-7-oxo-4,5,6,7-tetrahydro-1H-pyrazolo[3,4-c]pyridine-3-carboxamide] was run?
**A.** The IC50 was 8180 nM.

**Q.** Which IC50 does the source give for `CCS(=O)(=O)C1(CN2CCc3c(C(=O)NCc4ccc(C#N)cc4)nn(C)c3C2=O)CC1` [Example 20, N-(4-Cyanobenzyl)-6-((1-(ethylsulfonyl)cyclopropyl)methyl)-1-methyl-7-oxo-4,5,6,7-tetrahydro-1H-pyrazolo[3,4-c]pyridine-3-carboxamide] here?
**A.** Its IC50 is 259 nM.

**Q.** With `Cn1nc(C(=O)NCc2ccc(C#N)cc2)c2c1C(=O)N(CC1(S(C)(=O)=O)CC1)CC2` [Example 21, N-(4-Cyanobenzyl)-1-methyl-6-((1-(methylsulfonyl)cyclopropyl)methyl)-7-oxo-4,5,6,7-tetrahydro-1H-pyrazolo[3,4-c]pyridine-3-carboxamide] as the compound, how does the IC50 read?
**A.** The IC50 was 517 nM.

**Q.** For `Cn1nc(C(=O)NCc2ccc(Cl)cc2)c2c1C(=O)N(CC1(S(C)(=O)=O)CC1)CC2` [Example 22, N-(4-Chlorobenzyl)-1-methyl-6-((1-(methylsulfonyl)cyclopropyl)methyl)-7-oxo-4,5,6,7-tetrahydro-1H-pyrazolo[3,4-c]pyridine-3-carboxamide], which IC50 is on record?
**A.** Its IC50 is 436 nM.
